# System: patients with type 2 diabetes at high vascular risk
# Assay: Cardiovascular and Renal Outcomes Trial: linagliptin 5 mg once daily vs placebo on top of standard of care
# Type: in vivo
# Settings: for Hazard ratio for hospitalised heart failure: vs placebo
# Experimental: The effect of linagliptin on cardiovascular risk in adult patients with type 2 diabetes mellitus and with increased CV risk evidenced by a history of established macrovascular or renal disease (e.g. as defined herein) was evaluated in a multi-center, multi-national, randomized, double-blind parallel group trial. The trial compared the risk of experiencing a major adverse cardiovascular event (MACE) between linagliptin and placebo when these were added to and used concomitantly with standard of care treatments for diabetes (HbA1c), cardiovascular risk factors and renal disease.
# The primary endpoint in this trial was the time to first occurrence of three point (3P) MACE. A major adverse cardiac event was defined as a cardiovascular death or a nonfatal myocardial infarction (MI) or a nonfatal stroke. The statistical analysis plan tested for non-inferiority for the occurrence of (3P) MACE. […] The secondary endpoint was a renal composite, defined as renal death or sustained end stage renal disease or sustained decrease of 40% or more in eGFR.
# Type 2 diabetes patient with insufficient glycemic control (naïve or pre-treated with any antidiabetic background medication, excluding treatment with GLP-1 receptor agonists, DPP-4inhibitors or SGLT-2 inhibitors if ≥consecutive 7 days, e.g. having HbA1c 6.5-10%), and high risk of cardiovascular events, e.g. defined by: • albuminuria (micro or macro) and previous macrovascular disease: e.g. defined according to Condition I as indicated below; • and/or • impaired renal function: e.g. as defined according to Condition II as indicated below;
# Background and aims: People with type 2 diabetes (T2D) are at increased risk for hospitalization for heart failure (hHF), particularly in the setting of concomitant cardiovascular (CV) and/or kidney disease. […] Here we present analyses of HF outcomes with the DPP-4 inhibitor linagliptin (LINA) vs. placebo (PBO) from a Cardiovascular and Renal Outcomes Trial assessing cardiovascular safety and renal microvascular outcome in patients with type 2 diabetes at high vascular risk, a large CV outcomes trial that enrolled participants with T2D at high risk for hHF due to concomitant CV and/or chronic kidney disease. Materials and methods: People with T2D and concomitant CV and/or kidney disease were randomized to receive LINA 5 mg, or PBO once daily (1:1), on top of standard of care. All hHF, CV outcomes, and deaths were centrally adjudicated, with individual and composite HF-related outcomes analyses comparing LINA vs. placebo. Investigator-reported HF-related adverse events, whether or not confirmed by adjudication, were also analyzed. A Cox proportional hazards model adjusting for region and history of HF was used for analyses of first events. Recurrent hHF events were analyzed using a negative binomial model.
# Methods: The present Cardiovascular and Renal Outcomes Trial randomized people with T2D and i) concomitant CV disease with UACR >30 mg/g or ii) prevalent CKD (i.e. GFR <45 ml/min/1.73m2 and/or UACR >200 mg/g) to receive the DPP-4 inhibitor linagliptin (5 mg) or placebo once daily in a double-blind fashion. The primary CV endpoint was 3P-MACE, with a key secondary kidney endpoint (adjudicated ESKD, renal death, or sustained ≥40% decrease in eGFR from baseline) and other renal outcomes (including albuminuria and eGFR slope) also assessed. Subgroups were assessed by baseline kidney function (eGFR ≥/<45 ml/min/1.73m2and eGFR ≥/<30, 45 or 60 ml/min/1.73m2).
# Adults with type 2 diabetes, HbA1c 6.5-10.0% inclusive, and high CV risk were eligible for inclusion. […] Macrovascular disease eligibility criteria was based on documented and confirmed history of myocardial infarction, coronary artery disease, stroke, carotid artery disease, or peripheral artery disease. Participants with end-stage kidney disease (ESKD), defined as eGFR <15 or requiring maintenance dialysis, were excluded.
# [1] = ACE inhibitors/angiotensin receptor blockers No
# [2] = ACE inhibitors/angiotensin receptor blockers Yes
# [3] = Albuminuria and previous macrovascular disease plus eGFR 45-75 with an UACR >200 mg/g
# [4] = Albuminuria and previous macrovascular disease plus renal impairment (eGFR 15-<45 with any UACR)
# [5] = Albuminuria and previous macrovascular disease without eGFR >45 mL/min/1.73 m2
# [6] = Angiotensin-converting enzyme inhibitors No
# [7] = Angiotensin-converting enzyme inhibitors Yes
# [8] = Angiotensin-converting enzyme inhibitors/angiotensin receptor blockers No
# [9] = Angiotensin-converting enzyme inhibitors/angiotensin receptor blockers Yes
# [10] = Blood pressure control SBP <140 mmHg
# [11] = Blood pressure control SBP <160 mmHg
# [12] = Blood pressure control SBP ≥140 mmHg
# [13] = Blood pressure control SBP ≥160 mmHg
compound,measurement,setting,value
"CC#CCn1c(N2CCC[C@@H](N)C2)nc2c1c(=O)n(Cc1nc(C)c3ccccc3n1)c(=O)n2C [Linagliptin, 1-[(4-methyl-quinazolin-2-yl)methyl]-3-methyl-7-(2-butyn-1-yl)-8-(3-(R)-amino-piperidin-1-yl)-xanthine]",3-point MACE: hazard ratio vs placebo,[1],0.93
same,3-point MACE: patients with event/patients analyzed,[1],89/634
same,Key secondary kidney outcome: hazard ratio vs placebo,[1],0.96
same,Key secondary kidney outcome: patients with event/patients analyzed,[1],62/634
same,3-point MACE: hazard ratio vs placebo,[2],1.06
same,3-point MACE: patients with event/patients analyzed,[2],345/2860
same,Key secondary kidney outcome: hazard ratio vs placebo,[2],1.07
same,Key secondary kidney outcome: patients with event/patients analyzed,[2],265/2860
same,3-point MACE: hazard ratio vs placebo,Age <65 years,1.11
same,3-point MACE: patients with event/patients analyzed,Age <65 years,154/1467
same,Key secondary kidney outcome: hazard ratio vs placebo,Age <65 years,1.05
same,Key secondary kidney outcome: patients with event/patients analyzed,Age <65 years,180/1467
same,"Patients with event/patients analysed, hospitalised heart failure",Age <65 years,67/1467
same,Hazard ratio for hospitalised heart failure,Age <65 years,0.87
same,3-point MACE: hazard ratio vs placebo,Age ≥65 years,0.97
same,3-point MACE: patients with event/patients analyzed,Age ≥65 years,280/2027
same,Key secondary kidney outcome: hazard ratio vs placebo,Age ≥65 years,1.05
same,Key secondary kidney outcome: patients with event/patients analyzed,Age ≥65 years,147/2027
same,"Patients with event/patients analysed, hospitalised heart failure",Age ≥65 years,142/2027
same,Hazard ratio for hospitalised heart failure,Age ≥65 years,0.91
same,3-point MACE: hazard ratio vs placebo,[3],0.88
same,3-point MACE: patients with event/patients analyzed,[3],119/647
same,Key secondary kidney outcome: hazard ratio vs placebo,[3],0.99
same,Key secondary kidney outcome: patients with event/patients analyzed,[3],74/647
same,3-point MACE: hazard ratio vs placebo,[4],1.12
same,3-point MACE: patients with event/patients analyzed,[4],195/1462
same,Key secondary kidney outcome: hazard ratio vs placebo,[4],1.01
same,Key secondary kidney outcome: patients with event/patients analyzed,[4],215/1462
same,3-point MACE: hazard ratio vs placebo,[5],0.97
same,Key secondary kidney outcome: hazard ratio vs placebo,[5],1.22
same,3-point MACE: patients with event/patients analyzed,All patients,434/3493
same,Key secondary kidney outcome: patients with event/patients analyzed,All patients,327/3493
same,"Patients with event/patients analysed, hospitalised heart failure",All patients,209/3494
same,Hazard ratio for hospitalised heart failure,All patients,0.90
same,"Patients with event/patients analysed, hospitalised heart failure",[6],132/1920
same,Hazard ratio for hospitalised heart failure,[6],1.02
same,"Patients with event/patients analysed, hospitalised heart failure",[7],77/1574
same,Hazard ratio for hospitalised heart failure,[7],0.75
same,"Patients with event/patients analysed, hospitalised heart failure",[8],48/634
same,Hazard ratio for hospitalised heart failure,[8],0.84
same,"Patients with event/patients analysed, hospitalised heart failure",[9],161/2860
same,Hazard ratio for hospitalised heart failure,[9],0.92
same,3-point MACE: hazard ratio vs placebo,Antiplatelet drugs No,1.10
same,3-point MACE: patients with event/patients analyzed,Antiplatelet drugs No,125/1102
same,Key secondary kidney outcome: hazard ratio vs placebo,Antiplatelet drugs No,1.25
same,Key secondary kidney outcome: patients with event/patients analyzed,Antiplatelet drugs No,131/1102
same,"Patients with event/patients analysed, hospitalised heart failure",Antiplatelet drugs No,61/1102
same,Hazard ratio for hospitalised heart failure,Antiplatelet drugs No,0.94
same,3-point MACE: hazard ratio vs placebo,Antiplatelet drugs Yes,0.99
same,3-point MACE: patients with event/patients analyzed,Antiplatelet drugs Yes,309/2392
same,Key secondary kidney outcome: hazard ratio vs placebo,Antiplatelet drugs Yes,0.94
same,Key secondary kidney outcome: patients with event/patients analyzed,Antiplatelet drugs Yes,196/2392
same,"Patients with event/patients analysed, hospitalised heart failure",Antiplatelet drugs Yes,148/2392
same,Hazard ratio for hospitalised heart failure,Antiplatelet drugs Yes,0.88
same,"Patients with event/patients analysed, hospitalised heart failure",Atrial fibrillation No,154/3175
same,Hazard ratio for hospitalised heart failure,Atrial fibrillation No,0.86
same,"Patients with event/patients analysed, hospitalised heart failure",Atrial fibrillation Yes,55/319
same,Hazard ratio for hospitalised heart failure,Atrial fibrillation Yes,1.06
same,3-point MACE: hazard ratio vs placebo,Beta blockers No,0.87
same,3-point MACE: patients with event/patients analyzed,Beta blockers No,134/1414
same,Key secondary kidney outcome: hazard ratio vs placebo,Beta blockers No,1.14
same,Key secondary kidney outcome: patients with event/patients analyzed,Beta blockers No,161/1414
same,"Patients with event/patients analysed, hospitalised heart failure",Beta blockers No,55/1414
same,Hazard ratio for hospitalised heart failure,Beta blockers No,0.95
same,3-point MACE: hazard ratio vs placebo,Beta blockers Yes,1.11
same,3-point MACE: patients with event/patients analyzed,Beta blockers Yes,300/2080
same,Key secondary kidney outcome: hazard ratio vs placebo,Beta blockers Yes,0.97
same,Key secondary kidney outcome: patients with event/patients analyzed,Beta blockers Yes,166/2080
same,"Patients with event/patients analysed, hospitalised heart failure",Beta blockers Yes,154/2080
same,Hazard ratio for hospitalised heart failure,Beta blockers Yes,0.88
same,"Patients with event/patients analysed, hospitalised heart failure",[10],84/1750
same,Hazard ratio for hospitalised heart failure,[10],0.68
same,"Patients with event/patients analysed, hospitalised heart failure",[11],164/3017
same,Hazard ratio for hospitalised heart failure,[11],0.84
same,"Patients with event/patients analysed, hospitalised heart failure",[12],125/1744
same,Hazard ratio for hospitalised heart failure,[12],1.15
same,"Patients with event/patients analysed, hospitalised heart failure",[13],45/477
same,Hazard ratio for hospitalised heart failure,[13],1.24
same,3-point MACE: hazard ratio vs placebo,Body mass index <30 kg/m^2,0.98
same,3-point MACE: patients with event/patients analyzed,Body mass index <30 kg/m^2,191/1516
same,Key secondary kidney outcome: hazard ratio vs placebo,Body mass index <30 kg/m^2,1.14
same,Key secondary kidney outcome: patients with event/patients analyzed,Body mass index <30 kg/m^2,162/1516
same,"Patients with event/patients analysed, hospitalised heart failure",Body mass index <30 kg/m^2,78/1516
same,Hazard ratio for hospitalised heart failure,Body mass index <30 kg/m^2,0.98
